# From article PMC12839014, “Machine Learning-Based Virtual Screening for the Identification of Novel CDK-9 Inhibitors” (Biomolecules, 2025)
# Read-outs that look alike come from different tables or passages of the source.
# What was measured:
# [1] = target: T1, CDK9/cyclin T1 (Homo sapiens, UniProt P50750); experiment: ADAPTA kinase assay (TR-FRET), CDK9 inhibition; type: biochemical; conditions: for IC50: CDK9 inhibitory activity
# T1 construct: purchased Thermo Fisher Scientific, Madison, WI, USA
# T1 sequence (P50750 whole entry): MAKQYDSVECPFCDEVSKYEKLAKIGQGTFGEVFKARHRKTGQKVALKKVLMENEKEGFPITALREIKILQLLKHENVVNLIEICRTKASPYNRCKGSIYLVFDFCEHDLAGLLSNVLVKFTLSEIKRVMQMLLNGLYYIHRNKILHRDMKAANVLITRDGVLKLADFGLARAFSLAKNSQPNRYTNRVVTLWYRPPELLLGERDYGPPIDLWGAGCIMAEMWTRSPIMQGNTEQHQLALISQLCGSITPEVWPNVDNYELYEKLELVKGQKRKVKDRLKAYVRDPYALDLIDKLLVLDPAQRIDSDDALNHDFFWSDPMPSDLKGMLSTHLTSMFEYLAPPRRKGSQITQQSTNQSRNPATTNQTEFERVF
# T1 sequence (O60563 whole entry partner): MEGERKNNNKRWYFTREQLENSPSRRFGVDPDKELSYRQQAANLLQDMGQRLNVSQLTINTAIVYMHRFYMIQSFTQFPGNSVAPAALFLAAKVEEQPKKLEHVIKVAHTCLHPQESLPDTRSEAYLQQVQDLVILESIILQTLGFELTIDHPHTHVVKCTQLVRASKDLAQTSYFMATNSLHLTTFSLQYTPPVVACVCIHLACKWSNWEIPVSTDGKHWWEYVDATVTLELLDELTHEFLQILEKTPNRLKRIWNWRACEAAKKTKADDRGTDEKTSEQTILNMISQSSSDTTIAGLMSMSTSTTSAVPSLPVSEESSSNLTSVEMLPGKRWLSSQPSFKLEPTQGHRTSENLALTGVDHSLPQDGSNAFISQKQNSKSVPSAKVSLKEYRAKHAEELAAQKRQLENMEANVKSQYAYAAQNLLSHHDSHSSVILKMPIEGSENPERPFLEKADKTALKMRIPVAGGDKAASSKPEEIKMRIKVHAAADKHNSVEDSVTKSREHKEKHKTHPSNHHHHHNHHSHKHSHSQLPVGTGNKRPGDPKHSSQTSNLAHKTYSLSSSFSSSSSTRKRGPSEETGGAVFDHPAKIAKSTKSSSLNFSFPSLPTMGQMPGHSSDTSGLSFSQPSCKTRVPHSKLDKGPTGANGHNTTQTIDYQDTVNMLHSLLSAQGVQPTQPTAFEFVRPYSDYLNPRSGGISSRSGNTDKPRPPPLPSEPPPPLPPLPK
# Description: The inhibitory activity of the compounds identified by the VS was evaluated against CDK9/cyclin T1 using the fluorescence-based ADAPTA kinase assay (Thermo Fisher Scientific, Madison, WI, USA). The assay quantifies ADP generated during the kinase reaction through a competitive immunoassay employing a TR-FRET detection system. In the presence of an inhibitor, ADP formation by the kinase is reduced, leading to preservation of the antibody–tracer complex and a corresponding increase in the TR-FRET signal. Inhibitory potency was expressed as IC50 values, determined from logistic dose–response curves with 10 concentration points, each representing the average of two independent experiments.
# [2] = tested on: HeLa cells transfected with siCTR or siCDK9; experiment: Cell viability in HeLa cells with siRNA-mediated CDK9 knockdown; type: cell-based; conditions: 100 nM siCDK9 vs siCTR, 72 h treatment
# Description: (§1) HeLa, MCF-7, and MDA-MB-231 cells were seeded in triplicate into 96-well plates at densities of 1500, 3500, and 3000 cells per well, respectively, and allowed to adhere for 24 h. After 72 h of incubation, cells were fixed with 10% (v/v) trichloroacetic acid (TCA) and subsequently stained with 0.4% (w/v) sulforhodamine B (SRB) dissolved in 1% (v/v) acetic acid. Cell viability was quantified and expressed as a percentage relative to untreated control cells, which were normalized to 100%. Data represent the mean ± standard deviation (SD) from three independent experiments (n = 3). Statistical significance was determined using one-way ANOVA or Student’s t-test, followed by appropriate multiple-comparison post hoc tests to evaluate differences between experimental groups.
# Consistently, when CDK9 is depleted, the overall impact of compound 1 is reduced.
# Figure S2. HeLa cells were transfected with 100 nM of siCTR or siCDK9. After 24 hours of incubation, the cells were plated for the indicated treatment time points and incubated for an additional 24 hours, followed by treatment with the speciﬁed drug concentrations for another 72 hours. Results are presented as the mean ± SD from three independent experiments. *p< […], **p< 0.01, *** p < 0.001 and **** p < 0.0001.
# (1 picture or pasted object on this page, not shown here)
# [3] = tested on: MDA-MB-231 cells; experiment: Cell viability assay (SRB), MDA-MB-231; type: cell-based; conditions: 72 h; for cell viability (antiproliferative effect): MDA-MB-231, single agent, SRB
# Description: as §1
# [4] = tested on: pRPA32 S4/8 in HeLa cells; experiment: Immunofluorescence analysis of pRPA32 S4/8 (HR activity); type: cell-based; conditions: 1 h pretreatment with compound 1 or DMSO, then 2 h CPT
# Description: (§2) HeLa cells were fixed in 4% paraformaldehyde and subsequently permeabilized with 0.2% Triton X-100. Blocking was performed with 1% bovine serum albumin (BSA) for 10 min at room temperature. Cells were then incubated for 1 h at RT with primary antibodies targeting: γH2AX Ser139 (1:200, ab2893, Abcam, Cambridge, UK) or pRPA32 S4/8 (1:200, A300-245A, Bethyl Laboratories, Montgomery, TX, USA). Corresponding secondary antibody conjugated with AlexaFluor 647 donkey anti-rabbit IgG (H + L) was applied. Samples were mounted using ProLong™ Gold Antifade Mountant with DAPI (Thermo Fisher Scientific). High-resolution immunofluorescence imaging was performed on a Zeiss LSM 900 Airyscan2 confocal microscope equipped with a Plan-Apochromat 63×/1.4 NA oil immersion objective. Image acquisition and processing utilized Zen 3.9 software Zeiss, Jena, Germany). Quantification of fluorescent foci per nucleus was conducted using Fiji (ImageJ) software, version 2.14.0/1.54f.
# Figure S4. A) HeLa cells were pre-treated with compound 1 (reported as Cmp 1) or DMSO for one hour, followed by incubation with CPT. Thirty cells per condition were analyzed from three independent experiments, with results reported as the standard deviation (SD). Statistical analysis was performed using Welch’s corrected Student’s t-test to account for heteroscedasticity in the data. […]
# [5] = tested on: MCF-7 cells; experiment: Cell viability assay (SRB), MCF-7; type: cell-based; conditions: 72 h; for cell viability (antiproliferative effect): MCF-7, single agent, SRB
# Description: as §1
# [6] = tested on: HeLa cells; experiment: Cell viability assay (SRB), HeLa; type: cell-based; conditions: 72 h; for cell viability (antiproliferative effect): single agent, SRB
# Description: as §1
# [7] = tested on: γH2AX Ser139 foci in HeLa cells; experiment: Immunofluorescence analysis of γ-H2AX foci; type: cell-based; conditions: 1 h pretreatment with compound 1, then 2 h CPT, combination vs CPT alone
# Description: as §2
# Figure S3. […] Thirty cells were evaluated per condition. Data are expressed as the mean ± standard deviation (SD) from three separate experiments. Statistical signiﬁcance was determined using Welch’s corrected Student’s t-test to account for potential variance diﬀerences between samples. **** p < 0.0001. […]
# [8] = 10 concentration points, average of two independent experiments, read-out: Experimental IC50
structure (smiles),measurement,setting,value
Nc1c2c(-c3ccccc3Cl)nc(N3CCCC3)nc2nn1-c1ccc(F)cc1 [Compound 12],IC50,[1]; [8],> 133 µM
CCC(Sc1nc2sc(C(=O)N(C)C)c(C)c2c(=O)n1CCc1ccccc1)C(=O)NC1CCCCC1 (centres unmarked) [Compound 13],IC50,[1]; [8],> 133 µM
O=S(=O)(N1CCCC1)N1CCN(c2ncnc3scc(-c4ccc(F)cc4)c23)CC1 [Compound 6],IC50,[1]; [8],133 µM
Cn1nc(C(=O)N2CCC(c3cc(O)nc(N4CCCC4)n3)C2)c2ccccc21 (centres unmarked) [Compound 9],IC50,[1]; [8],> 133 µM
Cc1cc(N2CCC3(NC(=O)c4cccc(C(C)C)n4)CCCC23)nc(CO)n1 (centres unmarked) [Compound 8],IC50,[1]; [8],> 133 µM
Cc1nn(-c2ccc(F)cc2)c2nc(CCC(C)C)nc(N3CCN(C(=O)C4CC4c4ccccc4)CC3)c12 (centres unmarked) [Compound 4],IC50,[1]; [8],67.2 µM
COc1ccc(F)cc1-c1cc(N2CCN(S(=O)(=O)Cc3ccccc3)CC2)ncn1 [Compound 3],IC50,[1]; [8],28.6 µM
same,IC50,[1]; read-out: IC50,< 50 µM
Cc1cc(NC2CCN(c3ncccc3F)C2)nc(C)n1 (centres unmarked) [Compound 10],IC50,[1]; [8],> 133 µM
COc1cc2c(c3oc(=O)c(CCC(=O)NC4C=CS(=O)(=O)C4)c(C)c13)CCC(C)(C)O2 (centres unmarked) [Compound 5],IC50,[1]; [8],107 µM
COc1ccccc1-c1ccnc(NC2CC3CCC(C2)N3C)n1 (centres unmarked) [Compound 1],survival of CDK9-depleted cells vs control cells,[2],higher survival
same,"cell viability, combination with CPT","[3]; MDA-MB-231, CPT fixed 5 nM + compound 1 1.85–30 µM",additive interaction
same,"cell viability, combination with CPT","[3]; MDA-MB-231, compound 1 fixed 7.5 µM + CPT 1.25–20 nM",potentiated the cytotoxic activity of CPT
same,cell viability (antiproliferative effect),[3],stronger antiproliferative activity
same,IC50,[1]; [8],3.51 µM
same,IC50,[1]; read-out: IC50,< 50 µM
same,potency of compound 1 relative to compound 2,[1]; in vitro enzymatic assays,five-fold
same,pRPA32 S4/8 signal (HR activity),[4],no significant changes in pRPA32 signal
same,"cell viability, combination with CPT","[5]; MCF-7, CPT fixed 5 nM + compound 1 1.85–30 µM",additive interaction
same,"cell viability, combination with CPT","[5]; MCF-7, compound 1 fixed 7.5 µM + CPT 1.25–20 nM",potentiated the cytotoxic activity of CPT
same,cell viability (antiproliferative effect),[5],stronger antiproliferative activity
same,"cell viability, combination with CPT",[6]; CPT fixed 5 nM + compound 1 1.85–30 µM,additive interaction
same,"cell viability, combination with CPT",[6]; compound 1 fixed 7.5 µM + CPT 1.25–20 nM,potentiated the cytotoxic activity of CPT
same,cell viability (antiproliferative effect),[6],stronger antiproliferative activity
same,DNA damage response (γ-H2AX foci),[7],stronger DNA damage response
CCOC(=O)c1sc(NC(=S)Nc2c(C)n(C)n(-c3ccccc3)c2=O)c(C(=O)OCC)c1C [Compound 2],cell viability (antiproliferative effect),[3],less effective at comparable concentrations
same,IC50,[1]; [8],16.8 µM
same,IC50,[1]; read-out: IC50,< 50 µM
same,cell viability (antiproliferative effect),[5],less effective at comparable concentrations
same,cell viability (antiproliferative effect),[6],less effective at comparable concentrations
"CC[C@@]1(O)C(=O)OCc2c1cc1n(c2=O)Cc2cc3ccccc3nc2-1 [CPT, Camptothecin, reference compound]",cell viability (antiproliferative effect),[3],detectable cytotoxic effect
same,cell viability (antiproliferative effect),[5],detectable cytotoxic effect
same,cell viability (antiproliferative effect),[6],detectable cytotoxic effect
COC(=O)c1c(NC(=O)c2nn3c(C(F)(F)F)cc(-c4ccc(Br)cc4)nc3c2Cl)sc2c1CCCC2 [Compound 14],IC50,[1]; [8],> 133 µM
COc1ccc(OC)c(-c2cc(C(=O)NCC3CCN(c4ncccn4)CC3)n(C)n2)c1 [Compound 11],IC50,[1]; [8],> 133 µM
